Measured values as given in patent publication US12098193B2, “Netrin G1 as a biomarker for enhancing tumor treatment efficacy” (Institute For Cancer Research, priority 2017, dated 2024).
Peptide text beside a SMILES is read from it. * marks the point of attachment. Cbz = O=C(OCc1ccccc1)*; CH2F = FC*

Assays:
Type in all cases: cell-based
PDAC cells [1] = test: NK cell killing assay in 3D (CAF ECM); settings: added to NetG1 knockout CAFs; FIG. 11 panel D
Protocol: Knockout of NetG1 in CAFs reduced immunosuppressive cytokine secretion, and CAFs protected PDAC from NK cell induced death in a NetG1/NGL1-dependent manner. Referring to FIG. 11 (panel A), a panel of immunosuppressive and pro-tumor cytokines (GM-CSF, IL-1Beta, CCL20, IL-6, IL-8, TGF-beta) and NK stimulating cytokine (IL-15) was performed. Knockout of NetG1 in CAFs produced less of all cytokines tested, but still produced significant levels of the anti-tumor NK cell cytokine IL-15. Referring to FIG. 11 (panel B), an assay was performed with Granzyme B and IFN-g production in NK cells stimulated with IL-2+IFN-γ (positive controls) or in co-culture conditions with conditioned media or direct contact with CAFs (CON vs knockout of NetG1). Knockout of NetG1 in CAF media or direct contact partially activated NK cells. Referring to FIG. 11 (panel C), an NK cell killing assay in 3D (CAF ECM) was carried out. Knockout of NetG1 in CAFs allowed NK cells to kill PDAC, while CON CAFs protected PDAC.

PDAC cells [2] = test: PDAC survival in stressful culture conditions (serum free, glutamine free) with CAFs; settings: FIG. 7
Description: Referring to FIG. 7 (panel B), extracellular matrix produced by NetG1 knockout CAFs is less supportive to PDAC survival. Referring to FIG. 7 (panel C), knockout of NetG1 in CAFs produced less glutamate and glutamine. Referring to FIG. 7 (panel D), knockout of NetG1 in CAFs and knockout of NGL1 in PDAC expressed less glutamine/glutamate related proteins.

PDAC cells [3] = test: cell death quantification of PDAC (CON or NGL1 knockout) cultured alone or co-cultured with CAFs in 3D under stressful conditions; settings: stressful 3D culture (FIG. 9)
Protocol: NGL1 expression in PDAC determined the mode of cell death under stressful co-culture conditions with CAFs. Referring to FIG. 9 (panel A), cell death quantification of PDAC (CON or knockout) cultured alone in 3D was carried out. Referring to FIG. 9 (panel B), cell death quantification of PDAC (CON or knockout) co-cultured with CAFs (CON or knockout) in 3D was also carried out. […] Also, knockout of NetG1 I CAFs drove PDAC to higher amounts of death across all conditions.

Structure (SMILES)	protection of PDAC from NK cell-induced death (PDAC cells [1])	PDAC survival after adding back to the stressful culture conditions (PDAC cells [2])	mode of cell death of NGL1+ PDAC under caspase inhibition (PDAC cells [3]; NGL1+ PDAC)	cell death of NGL- PDAC under caspase inhibition (PDAC cells [3]; NGL1 knockout PDAC)
N[C@@H](CCC(=O)O)C(=O)O [glutamate]	partially restored protection	partially rescued PDAC survival		
NC(=O)CC[C@H](N)C(=O)O [glutamine]		partially rescued PDAC survival		
CC(NC(=O)C(NC(=O)OCc1ccccc1)C(C)C)C(=O)NC(CC(=O)O)C(=O)CF (stereo not drawn) [zvad] (Cbz-Val-Ala-Asp-CH2F; configuration not given here)			driven to necroptotic death	protected from death
